In patent US20060058351A1, “Novel ligands that modulate LXR-type receptors and cosmetic/pharmaceutical applications thereof” (GALDERMA RESEARCH & DEVELOPMENT, S.N.C., priority 2003, published 2006):

Target: T1, LXRβ receptor (Gal-hLXRβ-DEF in HG5LN HeLa cells) (Homo sapiens, UniProt P55055)
T1 construct: stably transported with the Gal-hLXRβ-DEF plasmid; expressed in transfected cells; host or cells: HG5LN cells (HeLa stably transfected with the (17mer)5-bGlob-Luc reporter)
T1 sequence (P55055 222-460 limits assumed): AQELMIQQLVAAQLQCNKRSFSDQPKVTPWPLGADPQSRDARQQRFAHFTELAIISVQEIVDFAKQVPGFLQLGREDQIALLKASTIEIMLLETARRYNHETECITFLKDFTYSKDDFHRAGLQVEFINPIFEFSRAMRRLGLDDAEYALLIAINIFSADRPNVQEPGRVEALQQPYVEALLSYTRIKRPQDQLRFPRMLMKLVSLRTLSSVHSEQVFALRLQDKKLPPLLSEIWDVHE
Assay: LXRβ transactivation test (luciferase reporter), determination of Kd apparent by crossover curves against a reference agonist
Type: cell-based
Details: for KdR/KdA: ratio of KdR to KdA
Description: This activity on the LXRβ receptors is measured in the transactivation test and quantified by means of the dissociation constant Kdapp (apparent), as described in Example 3.
The activity of the LXRβ receptors is measured in a transactivation test. Activation of the receptors with an agonist (activator) in HeLa cells leads to the expression of a reporter gene, luciferase, which, in the presence of a substrate, generates light. The activation of the receptors may thus be measured by quantifying the luminescence produced after incubating the cells in the presence of a reference agonist. The antagonist products displace the agonist from its site, thus preventing activation of the receptor: there will thus be a reduction in the light produced, which may be quantified. The agonist products are tested alone and their effect is measured by measuring the activation of luminescence after incubation.
Determination of the Kdapp:
In this study, a constant that is the affinity of the molecule for the receptor is determined. Since this value can fluctuate depending on the basal activity and the expression of the receptor, it is known as the Kd apparent (KdApp).
To determine this constant, “crossover curves” of the test product against a reference agonist are produced in a 96-well plate: […] of the test product plus a concentration 0 (in the rows) and 7 concentrations of the agonist plus a 0 concentration (in the columns). This is 88 measurement points for one product and one receptor. The remaining 8 wells are used for the 100% control (total agonist) and 0% control (DMSO).
These crossover curves make it possible to determine the AC50 values (concentration at which 50% activation is observed) of the reference ligand at various concentrations of the test product. These AC50 values are used to calculate the Schild regression by plotting a straight line corresponding to the Schild equation (“quantitation in receptor pharmacology,” Terry P. Kenakin, Receptors and Channels, 2001, 7, 371-385).
In the case of an antagonist, an IC50 value (concentration inhibiting 50% of the activity) is calculated by plotting the curve of the product at the concentration of the reference ligand giving 80% activation.
The cell lines used are HG5LN cells, HeLa cells stably transfected with the (17mer)5-bGlob-Luc reporter and also stably […] with the Gal-hLXRβ-DEF plasmid. These cells are inoculated into 96-well plates at a rate of 10 000 cells per well in 100 μl of DMEM medium free of phenol red and supplemented with 10% defatted calf serum. The plates are then incubated at 37° C. and 7% CO2 for 4 hours.
The various dilutions of the test products, of the reference ligand and of the 100% control (N-(2,2,2-trifluoroethyl)-N-[4-(trifluorohydroxy-trifluoromethylethyl)phenyl]benzenesulfonamide) and of the 0% control (0.2% dimethyl sulfoxide) are added at a rate of 5 μl per well. The plates are then incubated for 18 hours at 37° C. and 7% CO2.
The culture medium is removed by turning over and 100 μl of a 1:1 PBS/luciferine mixture are added to each well. After 5 minutes, the plates are read using a luminescence detector.

[1] = KdA, Affinity for the LXRβ receptor, HG5LN HeLa cells, Gal-hLXRβ-DEF, luciferase
[2] = KdApp, apparent dissociation constant, Schild regression, LXRβ receptor
[3] = KdR, Affinity for the LXRβ receptor, HG5LN HeLa cells, Gal-hLXRβ-DEF, luciferase

Q: For `CC(=O)C1(c2ccccc2)CCN(C(=O)CNC(=O)c2ccc(C3CCCCC3)cc2)CC1` [Compound 18, N-[2-(4-acetyl-4-phenylpiperidin-1-yl)-2-oxoethyl]-4-cyclohexylbenzamide], which Kd [1] is on record?
A: 500 nM

Q: What about the Kd [2] of the same compound?
A: 2000 nM

Q: And the Kd [3]?
A: 2000 nM

Q: And the KdR/KdA?
A: 4

Q: For `CCCC(=O)C1(c2ccccc2)CCN(C(=O)C(C)(C)Oc2ccccc2Cl)CC1` [Compound 47, 1-{1-[2-(2-chlorophenoxy)-2-methylpropionyl]4-phenylpiperidin-4-yl}butan-1-one], which Kd [1] is on record?
A: 20000 nM

Q: What about the Kd [2] of the same compound?
A: 2000 nM

Q: What about the Kd [3] of the same compound?
A: 2000 nM

Q: And the KdR/KdA?
A: 0.1

Q: Which Kd [1] does the source give for `CCCC(=O)C1(c2ccccc2)CCN(C(=O)CNC(=O)c2ccc(C3CCCCC3)cc2)CC1` [Compound 54, N-[2-(4-butyryl-4-phenylpiperidin-1-yl)-2-oxoethyl]-4-cyclohexylbenzamide] here?
A: 500 nM

Q: And the Kd [2]?
A: 2000 nM

Q: And the Kd [3]?
A: 2000 nM

Q: What about the KdR/KdA of the same compound?
A: 4
